Structures can show the parent of a compound that is named as a salt.
Tests used:
[1] = biological target: HCV NS3 protease genotype 3a (3A-1) (Hepatitis C virus genotype 3a, UniProt Q81258); experiment: HCV NS3 protease time-resolved fluorescence (TRF) assay, genotype 3a; type: biochemical; conditions: Ki 3a
In short: (§1)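 NS3/NS4A protease was pre-incubated 10 min with inhibitor in 50 mM HEPES pH 7.5, 150 mM NaCl, 15% glycerol, 0.15% Triton X-100, 10 mM DTT, 0.1% PEG 8000. TRF peptide substrate (25 nM final) was hydrolysed for 6 h at room temperature. IC50 came from four-parameter fits.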

[2] = biological target: T1, HCV genotype 1b (BK) NS3 modified enzyme with a R155K mutation (Hepatitis C virus genotype 1b, UniProt P26663, R1181K); experiment: HCV NS3 protease time-resolved fluorescence (TRF) assay, genotype 1b R155K; type: biochemical; conditions: Ki 1b R155K
T1 construct: HCV genotype 1b (BK) NS3 modified enzyme
In short: as §1

[3] = genotype 1b (BK) NS3 R155K, single value

Structure (SMILES): C=C[C@@H]1C[C@]1(NC(=O)[C@@H]1C[C@@H]2CN1C(=O)[C@H](C1CCCCC1)NC(=O)O[C@@H]1C[C@H]1CCCCCc1c(nc3ccccc3c1OC1CC3COCC(C1)N3CC)O2)C(=O)NS(=O)(=O)C1(C)CC1 (stereo partly drawn) [Example 290, 7-{[(1aR,5S,8S,10R,22aR)-5-cyclohexyl-8-{[(1R,2S)-2-ethenyl-1-{[(1-methylcyclopropyl)sulfonyl]carbamoyl}cyclopropyl]carbamoyl}-3,6-dioxo-1,1a,3,4,5,6,9,10,18,19,20,21,22,22a-tetradecahydro-8H-7,10-methanocyclopropa[18,19][1,10,3,6]dioxadiazacyclononadecino[11,12-b]quinolin-17-yl]oxy}-9-ethyl-3-oxa-9-azoniabicyclo[3.3.1]nonane formate]
- Ki [1]: 1.14 nM
- Ki ([2]; first of two values printed in the cell (not explained)): 0.012 nM
- Ki ([2]; second of two values printed in the cell (not explained)): 0.125 nM

Structure (SMILES): C=C[C@@H]1C[C@]1(NC(=O)[C@@H]1C[C@@H]2CN1C(=O)[C@H](C1CCCC1)NC(=O)O[C@@H]1CCC[C@H]1CC/C=C/Cc1c(nc3ccccc3c1OCCC1OCCO1)O2)C(=O)NS(=O)(=O)C1(C)CC1 [Example 50, (3aR,7S,10S,12R,21E,24aS)-7-cyclopentyl-19-[2-(1,3-dioxolan-2-yl)ethoxy]-N-[(1R,2S)-2-ethenyl-1-{[(1-methylcyclopropyl)sulfonyl]carbamoyl}cyclopropyl]-5,8-dioxo-1,2,3,3a, 5,6,7,8,11,12,20,23,24,24a-tetradeca hydro-10H-9,12-methanocyclopenta[18,19][1,10,3,6]dioxadiazacyclononadecino[11,12-b] quinoline-10-carboxamide]
- Ki [1]: 6.6 nM
- Ki [2, 3]: 0.23 nM

Structure (SMILES): C=C[C@@H]1C[C@]1(NC(=O)[C@@H]1C[C@@H]2CN1C(=O)[C@H](C1CCCC1)NC(=O)O[C@@H]1CCC[C@H]1CC/C=C/Cc1c(nc3ccccc3c1OCc1ccccc1)O2)C(=O)NS(=O)(=O)C1CC1 [Example 8, (3aR,7S,10S,12R,21E,24aS)-19-(benzyloxy)-7-cyclopentyl-N-{(1R,2S)-1-[(cyclopropylsulfonyl)carbamoyl]-2-ethenylcyclopropyl}-5,8-dioxo-1,2,3,3a,5,6,7,8,11,12,20,23,24,24a-tetradecahydro-10H-9,12-methanocyclopenta[18,19][1,10,3,6] dioxadiazacyclononadecino[11,12-b]quinoline-10-carboxamide]
- Ki [1]: 51 nM
- Ki [2, 3]: 1.6 nM

Structure (SMILES): C=C[C@@H]1C[C@]1(NC(=O)[C@@H]1C[C@@H]2CN1C(=O)[C@H](C(C)(C)C)NC(=O)O[C@@H]1CCC[C@H]1CCCCCc1c(nc3ccccc3c1OCCN1CCOCC1)O2)C(=O)NS(=O)(=O)N1CCCC1 [Example 109, (3aR,7S,10S,12R,24aR)-7-tert-butyl-N-{(1R,2S)-2-ethenyl-1-[(pyrrolidin-1-ylsulfonyl)carbamoyl]cyclopropyl}-19-[2-(morpholin-4-yl)ethoxy]-5,8-dioxo-1,2,3,3a,5,6,7,8,11,12,20,21,22,23,24,24a-hexadecahydro-10H-9,12-methano cyclopenta[18,19][1,10,3,6] dioxadiazacyclononadecino [11,12-b]quinoline-10-carboxamide]
- Ki [1]: 122 nM
- Ki [2, 3]: 4.1 nM

Structure (SMILES): C=C[C@@H]1C[C@]1(NC(=O)[C@@H]1C[C@@H]2CN1C(=O)[C@H](C(C)(C)C)NC(=O)O[C@@H]1C[C@H]1CCCCCc1c(nc3ccccc3c1OCCCN1CCC[C@@H]1C(N)=O)O2)C(=O)NS(=O)(=O)C1(C)CC1 [Example 208, (1aR,5S,8S,10R,22aR)-5-tert-butyl-17-{3-[(2R)-2-carbamoylpyrrolidin-1-yl]propoxy}-N-[(1R,2S)-2-ethenyl-1-{[(1-methylcyclopropyl)sulfonyl]carbamoyl}cyclopropyl]-3,6-dioxo-1,1a,3,4,5,6,9,10,18,19,20,21,22,22a-tetradecahydro-8H-7,10-methanocyclopropa[18,19][1,10,3,6] dioxadiazacyclononadecino[11,12-b] quinoline-8-carboxamide]
- Ki [1]: 1 nM
- Ki [2, 3]: 0.11 nM
